# Data: US20240226105A1 (priority 2021, published 2024)
# “Also recorded” adds a separate entry of the source. Where two headings read alike, the source gives them in different places.
# Experiments:
# [1] = assay type: physicochemical; conditions: pH 4
# [2] = assay type: physicochemical
# [3] = assay type: physicochemical; remark: listed apart in the source
# [4] = assay type: physicochemical; remark: listed apart in the source
# [5] = assay type: physicochemical; remark: listed apart in the source
# [6] = cited from earlier work
# [7] = assay type: physicochemical; remark: listed apart in the source
# [8] = assay type: physicochemical; remark: listed apart in the source
smiles,measurement,setting,value
"N=C1NC(O)C2C3OC4(O)O[C@@H](C(O)C2(N1)[C@@H]4O)C3(O)CO (stereo partly shown) [TTX, octahydro-12-(hydroxymethyl)-2-imino-5,9:7,10a-dimethano-10aH-(1,3)dioxocino(6,5-d)-pyrimidine-4,7,10,11,12-pentanol]",concentration up to which TTX was sufficiently soluble,[1],≥ 300 µg/mL
same,TTX solubility (observation),[2],Deposits in the vial; also recorded: Partially solubilized; also recorded: Almost fully solubilized
same,concentration up to which TTX was soluble,[3],about 150 ug/mL
same,concentration at which TTX was found to be solubilized,[4],300 µg/mL
same,solubility of TTX in pure organic solvents,[5],below 30 μg/ml
same,pKa,[6],9.4
same,solubility of TTX in a combination of organic solvents and acids,[7],below 30 μg/ml
same,TTX Solubility,[7]; pH 3.7,Not soluble
same,TTX Solubility,[7]; pH 4.6,Not soluble
same,concentration at which TTX was found to be solubilized,[8],300 µg/mL
